Experimental findings from US8916376B2, “Metal-binding peptides” (priority 2007, dated 2014) are described below.

For test [1], the system named is E. coli BLR(DE3) cells. The test is described as follows: Multi-step selection of E. coli clone library under toxic agents; apparent MIC. It is filed as cell-based. To be noted: for concentration above which no bacterial growth was observed: 24 hours selection cycle, FIG. 2. An excerpt: The pCRRL1 library was transformed into E. coli BLR(DE3) cells, which carry a T7 RNA polymerase gene under control of IPTG-regulated lacUV5 promoter. The number of individual clones was estimated to be ˜10^5. The clone library was allowed to grow for 4 hrs in order to obtain several replicates of it, and then split into parts intended for parallel evolution experiments using different toxic agents. Expression of the randomized ORF was induced by IPTG, and the multi-step selection experiment was started by adding appropriate amounts of NiCl2, AgNO3, or K2TeO3 to the cell cultures, as shown in FIG. 2 with the selection of the E. coli clones resistant to NiCl2 (a), AgNO3 (b), and K2TeO3 (c). Large filled circles represent bacterial cultures successfully growing at indicated concentrations of each toxic agent. […] Black arrows point to the most resistant bacterial cultures, from which individual clones have been isolated for further studies of their toxicity tolerance. Grey arrow marks the culture, which was used as a non-adapted control in tests of the bacterial resistance towards nickel, silver, and tellurite. […] A concentration gradient of the toxic agents was chosen to cover a range within which an MIC was expected to be found. Thus, at every step the selective pressure was adjusted depending on the achieved level of the toxicity tolerance to keep the evolving bacterial populations under subinhibitory conditions. Substantial increase in bacterial resistance to Ni^2+, Ag^+, and TeO3^2− was observed during four, five, and seven consecutive selection cycles, respectively. After that, no further change in toxicity tolerance was detected. During the selection procedure, the apparent MIC values increased from 4 to 10 mM NiCl2, from 0.03 to 0.90 mM AgNO3, and from 0.7 to 20 μM K2TeO3. Eight clones were isolated from each of the three evolved resistant populations by plating. These were tested for the dependence of growth on mini-gene expression by measuring OD600 after 24 hrs of cultivation in the presence of corresponding toxic agent, with and without IPTG. […] All eight Ni^2+-resistant clones harbored the same plasmid (designated as pCRRL1-N94-01) with a mini-gene variant coding for the peptide […] (SEQ ID NO 1), a structural model of which is shown in FIG. 2a. In addition, a 9-bp deletion was detected in the spacer region between the ORF and the transcription terminator. However, since no important element of the mini-gene operon was located there, the deletion was unlikely to affect the peptide expression. […] All TeO3^2−-resistant clones carried a version of plasmid pCRRL1-T507-01 that has a 225-bp deletion of the whole mini-gene transcriptional unit together with adjacent downstream sequence. This deletion obviously abolishes T7 RNA polymerase activity on the plasmid, making it irresponsive to IPTG induction.

Test [2] deals with E. coli BLR(DE3) cells. The test is described as follows: Dependence of growth under toxic agent on mini-gene expression (OD600, with and without IPTG). To be noted: for effect of IPTG-induced mini-gene expression on growth (OD600): resistant clones carrying the mini-gene, 24 hrs cultivation with the corresponding toxic agent, with and without IPTG. It is filed as cell-based. An excerpt:
The pCRRL1 library was transformed into E. coli BLR(DE3) cells, which carry a T7 RNA polymerase gene under control of IPTG-regulated lacUV5 promoter. The number of individual clones was estimated to be ˜10^5. The clone library was allowed to grow for 4 hrs in order to obtain several replicates of it, and then split into parts intended for parallel evolution experiments using different toxic agents. Expression of the randomized ORF was induced by IPTG, and the multi-step selection experiment was started by adding appropriate amounts of NiCl2, AgNO3, or K2TeO3 to the cell cultures, as shown in FIG. 2 with the selection of the E. coli clones resistant to NiCl2 (a), AgNO3 (b), and K2TeO3 (c). Large filled circles represent bacterial cultures successfully growing at indicated concentrations of each toxic agent. […] Black arrows point to the most resistant bacterial cultures, from which individual clones have been isolated for further studies of their toxicity tolerance. Grey arrow marks the culture, which was used as a non-adapted control in tests of the bacterial resistance towards nickel, silver, and tellurite. […] A concentration gradient of the toxic agents was chosen to cover a range within which an MIC was expected to be found. […] After that, no further change in toxicity tolerance was detected. […] In addition, a 9-bp deletion was detected in the spacer region between the ORF and the transcription terminator. […]
The existence of a positive correlation between the level of mini-gene expression and the extent of toxicity tolerance would strongly argue in favor of a role for the mini-gene in the mechanism of stress resistance of the evolved clones. […] Comparison of the bacterial growth parameters measured in the presence and absence of IPTG made it possible to distinguish the specific effect of mini-gene expression on culture survival and propagation from the basal resistance to the hostile environment acquired through adaptive genomic mutations. […]

The mark [3] stands for this setting: E. coli BLR(DE3) pCRRL1 library, start of the selection procedure.
Setting [4] is: evolved resistant population, end of the selection procedure.

`O=[N+]([O-])[O-].[Ag+]` [AgNO3]: in the test with E. coli BLR(DE3) cells [1], the “concentration above which no bacterial growth was observed” value is “above 0.9 mM”. Also, the “apparent MIC” value in the test on E. coli BLR(DE3) cells [1] (setting [3]) stood at 30 µM; with E. coli BLR(DE3) cells [1] (setting [4]) it was 900 µM.
As to `O=[Te]([O-])[O-].[K+].[K+]` [K2TeO3], the “concentration above which no bacterial growth was observed” value in the test on E. coli BLR(DE3) cells [1] is “above 18 mM”. Besides, the “apparent MIC” value was 0.7 µM in the test on E. coli BLR(DE3) cells [1] (setting [3]) and 20 µM in the test with E. coli BLR(DE3) cells [1] (setting [4]).
For the compound `[Cl][Ni][Cl]` [NiCl2], the “apparent MIC” value with E. coli BLR(DE3) cells [1] (setting [3]) turned out to be 4000 µM; in the test on E. coli BLR(DE3) cells [1] (setting [4]), 10000 µM. Moreover, the “concentration at which culture was able to grow” value in the test with E. coli BLR(DE3) cells [2] (non-adapted control culture, insensitive to IPTG) is “below 4 mM”.
Regarding “MSHATATPASRRRLPLRS [SEQ ID NO 2, 18-mer peptide encoded by the mini-gene of plasmid pCRRL1-A226-01 in Ag+-resistant E. coli clones]”, in the test on E. coli BLR(DE3) cells [2], the “effect of IPTG-induced mini-gene expression on growth (OD600)” value is given as “not affected by IPTG”.
Still for that read-out and setting: the result for “MSHAYFVCNRCDSSNHSAHE [SEQ ID NO 1, 20-mer peptide encoded by the mini-gene of plasmid pCRRL1-N94-01 in Ni2+-resistant E. coli clones]” reads “Significant IPTG-induced growth improvement”.
